“And” between values parts separate entries of the source, which are not always exact repeats. Equal entries are not always repeated. Where two headings read alike, the source gives them in different places.
How the values were obtained:
H2228 cells = assay: Cell cycle arrest analysis (PI, FACS), H2228; assay type: cell-based; conditions: H2228, 1 µM, 24 h, in words
Description: (§1) After 24–48 h following compound treatment, cells were harvested and stained with annexin V (1:500 diluted in annexin V buffer) for 30 min and PI (1:200) solution for 30 min. 1 × 10^6 cells were analysed using flow cytometric analysis. For the cell cycle arrest analysis, cells were harvested by trypsinisation and fixed with 70% ethanol overnight at −20 °C. The next day, cells were harvested and washed with cold DPBS at 500 × g. The cells were suspended in RNase/PI solution (Cell Signalling Technologies, # 4087).

[1] = test system: ALK L1196M-TEL Ba/F3 cells; assay: Apoptosis analysis (annexin V-FITC/PI, FACS), ALK L1196M-TEL Ba/F3; assay type: cell-based
Description: as §1, with “g.” for “g. The cells were suspended in RNase/PI solution (Cell Signalling Technologies, # 4087).”

Caco-2 cells = assay: Permeability assessment using Caco-2 cells; assay type: in vitro ADME, human
Description: (§2) Stock solutions (10 mM) of reference compounds and 10g were diluted to a concentration of 10 µM with the transport buffer (HBSS + 1%BSA) and the test compounds were applied to the apical or basolateral side of the cell monolayer. […] In addition, the efflux ratio of each compound was also determined. Reference compounds and 10g were quantified by LC-MS/MS analysis based on the peak area ratio of analyte/the internal standard.

[2] = Permeability assessment using Caco-2 cells; assay type: in vitro ADME, human; conditions: human
Description: as §2

c-Src = c-Src (Homo sapiens, UniProt P12931); assay: Biochemical kinase assay, c-Src
c-Src, sequence (P12931 whole entry): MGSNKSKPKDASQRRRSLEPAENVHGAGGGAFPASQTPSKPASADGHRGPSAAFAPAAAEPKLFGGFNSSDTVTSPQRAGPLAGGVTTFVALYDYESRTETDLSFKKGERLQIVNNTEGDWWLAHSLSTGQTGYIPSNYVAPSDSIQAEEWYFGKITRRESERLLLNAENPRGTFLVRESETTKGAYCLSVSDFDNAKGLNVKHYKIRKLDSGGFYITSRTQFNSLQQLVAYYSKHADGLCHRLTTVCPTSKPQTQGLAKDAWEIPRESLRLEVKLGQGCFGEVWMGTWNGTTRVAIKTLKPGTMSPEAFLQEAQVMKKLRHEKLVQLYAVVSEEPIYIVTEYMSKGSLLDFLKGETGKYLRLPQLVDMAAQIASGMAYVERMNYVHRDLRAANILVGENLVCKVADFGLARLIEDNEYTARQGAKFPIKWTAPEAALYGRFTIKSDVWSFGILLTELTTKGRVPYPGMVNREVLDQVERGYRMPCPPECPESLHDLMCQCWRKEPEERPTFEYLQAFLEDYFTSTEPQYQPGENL
Description: (§3) Biochemical kinase assay was performed by methods previously reported. Kinase reactions of all test compounds except 10g were carried out at 10 µM ATP. Kinase reaction of 10g was performed at three different concentrations of ATP (10/50/100 µM).

[3] = test system: ALK autophosphorylation and STAT3, ERK, PLC-gamma phosphorylation in ALK wt-TEL Ba/F3, ALK L1196M-TEL Ba/F3 and H2228 cell lines; assay: Western blot of ALK autophosphorylation and downstream signalling; assay type: cell-based; conditions: in words
Description: (§4) Cells were harvested and lysed using IP buffer containing 50 mM HEPES (pH 7.4), 1% Triton X-100, 2 mM EDTA, 150 mM NaCl, 2.5 mM NaF, 5 mM Na3VO4, protease inhibitor cocktail tablet (Roche, # 11–878-580–001). The protein concentration was determined by Bradford assay. Proteins were separated using SDS-PAGE and transferred onto NC membrane. The membranes were blocked using 5% skim milk in TBS-T buffer. The rabbit polyclonal antibody against phospho-ALK (Tyr1604, # 3341), phospho-ERK1/2 (Thr202/Tyr204, # 8544), phospho- PLC-gamma (Tyr783, # 14008), phospho-STAT3 (Tyr705, # 4074) and cleaved caspase3 (# 9661) were purchased from Cell Signalling Technologies, and PARP1/2 (H-250, # sc-7150) and anti-β-actin (# sc-47778) antibody was obtained from Santa Cruz Biotechnology. All primary antibodies were diluted in TBS-T at 1:1000. Each primary antibody was incubated overnight at 4 °C, followed by the secondary antibody treatment for 1 h at room temperature. Secondary antibodies were purchased from genDEPOT. Proteins were detected using ECL substrate, and then exposed to X-ray film.

ALK wt-TEL Ba/F3 cells = assay: Apoptosis analysis (annexin V-FITC/PI, FACS), ALK wt-TEL Ba/F3; assay type: cell-based; conditions: ALK wt-TEL Ba/F3, 24 h, in words
Description: as §1, with “g.” for “g. The cells were suspended in RNase/PI solution (Cell Signalling Technologies, # 4087).”

[4] = test system: cleaved PARP and cleaved caspase-3 in ALK wt-TEL and ALK L1196M-TEL Ba/F3 cells; assay: Western blot of apoptosis markers; assay type: cell-based; conditions: 36 h, in words
Description: as §4

ALK-L1196M = ALK-L1196M (Homo sapiens, UniProt Q9UM73, L1196M); assay: Radiometric biochemical kinase assay, ALK-L1196M; conditions: radiometric kinase assay, 10 µM ATP
ALK-L1196M, sequence (Q9UM73 19-1620 L1196M): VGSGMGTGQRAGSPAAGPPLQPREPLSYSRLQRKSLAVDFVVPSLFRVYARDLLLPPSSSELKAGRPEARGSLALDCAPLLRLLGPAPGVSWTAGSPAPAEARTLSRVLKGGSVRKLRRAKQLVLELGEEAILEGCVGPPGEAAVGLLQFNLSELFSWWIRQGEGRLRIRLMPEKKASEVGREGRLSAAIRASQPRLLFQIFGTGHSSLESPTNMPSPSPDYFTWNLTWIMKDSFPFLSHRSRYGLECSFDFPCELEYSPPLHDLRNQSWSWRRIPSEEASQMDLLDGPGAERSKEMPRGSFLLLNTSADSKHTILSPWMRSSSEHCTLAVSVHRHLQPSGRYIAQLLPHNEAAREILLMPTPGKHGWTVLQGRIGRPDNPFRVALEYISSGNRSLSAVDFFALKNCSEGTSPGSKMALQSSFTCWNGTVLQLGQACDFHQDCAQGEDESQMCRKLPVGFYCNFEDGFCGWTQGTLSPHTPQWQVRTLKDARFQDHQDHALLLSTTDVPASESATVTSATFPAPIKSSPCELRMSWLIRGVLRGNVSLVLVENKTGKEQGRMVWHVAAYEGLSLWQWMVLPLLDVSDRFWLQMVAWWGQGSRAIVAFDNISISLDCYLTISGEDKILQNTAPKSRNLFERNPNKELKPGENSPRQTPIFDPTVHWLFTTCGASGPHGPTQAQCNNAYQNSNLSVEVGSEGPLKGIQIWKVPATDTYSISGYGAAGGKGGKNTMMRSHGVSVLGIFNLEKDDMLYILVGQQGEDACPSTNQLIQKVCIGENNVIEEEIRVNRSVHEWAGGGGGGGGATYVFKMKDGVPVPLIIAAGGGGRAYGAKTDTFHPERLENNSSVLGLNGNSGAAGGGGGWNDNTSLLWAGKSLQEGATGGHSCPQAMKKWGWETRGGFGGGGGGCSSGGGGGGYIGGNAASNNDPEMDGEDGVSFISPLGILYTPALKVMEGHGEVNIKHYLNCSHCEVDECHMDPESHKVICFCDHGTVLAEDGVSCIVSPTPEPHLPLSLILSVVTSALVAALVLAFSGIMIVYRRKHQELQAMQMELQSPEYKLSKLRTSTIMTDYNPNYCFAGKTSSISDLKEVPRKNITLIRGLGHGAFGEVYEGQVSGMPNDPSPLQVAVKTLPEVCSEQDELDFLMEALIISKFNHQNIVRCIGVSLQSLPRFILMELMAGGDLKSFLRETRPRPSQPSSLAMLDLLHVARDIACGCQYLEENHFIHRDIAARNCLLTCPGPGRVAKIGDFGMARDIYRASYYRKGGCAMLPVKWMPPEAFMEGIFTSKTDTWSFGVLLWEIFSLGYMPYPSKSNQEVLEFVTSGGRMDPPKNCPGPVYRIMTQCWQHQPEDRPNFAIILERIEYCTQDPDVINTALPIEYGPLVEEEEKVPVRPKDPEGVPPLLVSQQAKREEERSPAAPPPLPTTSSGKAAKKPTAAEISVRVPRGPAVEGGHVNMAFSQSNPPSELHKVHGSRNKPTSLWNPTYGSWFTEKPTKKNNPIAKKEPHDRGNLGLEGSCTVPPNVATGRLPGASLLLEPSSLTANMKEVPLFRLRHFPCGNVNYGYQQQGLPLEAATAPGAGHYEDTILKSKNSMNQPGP
Description: as §3

ALK-wt = ALK-wt (Homo sapiens, UniProt Q9UM73); assay: Radiometric biochemical kinase assay, ALK-wt
ALK-wt, sequence (Q9UM73 19-1620): as the sequence (Q9UM73 19-1620 L1196M) above, with M1178L counted along it
Description: as §3

[5] = test system: ALK L1196M-TEL Ba/F3 cells; assay: Anti-proliferation assay (CTG), ALK L1196M-TEL Ba/F3; assay type: cell-based
Description: (§5) ALK wt-TEL, ALK L1196M-TEL transformed Ba/F3 and H2228 cell lines were cultured in RPMI1640 (Welgene, # LM011-01). […] Parental Ba/F3 cells were cultured in RPMI1640 media supplemented with 10% foetal bovine serum and 1% penicillin/streptomycin solution in the presence of IL-3. The cells were maintained in a humidified atmosphere containing 5% CO2 at 37 °C.
(§6) Cells (ALK wt-TEL, ALK L1196M-TEL and Parental Ba/F3: 1 × 10^4, H2228: 5 × 10^3) were plated in 96 well tissue culture plates. Each compound was added to each well at 10 dose points of three-fold serial dilution in DMSO. After treatment with each compound for 72 h, CTG assay solution (Promega, # G7572) was added to each well.

ALK-F1174L = ALK-F1174L (Homo sapiens, UniProt Q9UM73, F1174L); assay: Radiometric biochemical kinase assay, ALK-F1174L
ALK-F1174L, sequence (Q9UM73 19-1620 F1174L): as the sequence (Q9UM73 19-1620 L1196M) above, with F1156L, M1178L counted along it
Description: as §3

[6] = target: IRK (insulin receptor kinase) (Homo sapiens, UniProt P06213); assay: Biochemical kinase assay, IRK
IRK (insulin receptor kinase), sequence (P06213 28-1382): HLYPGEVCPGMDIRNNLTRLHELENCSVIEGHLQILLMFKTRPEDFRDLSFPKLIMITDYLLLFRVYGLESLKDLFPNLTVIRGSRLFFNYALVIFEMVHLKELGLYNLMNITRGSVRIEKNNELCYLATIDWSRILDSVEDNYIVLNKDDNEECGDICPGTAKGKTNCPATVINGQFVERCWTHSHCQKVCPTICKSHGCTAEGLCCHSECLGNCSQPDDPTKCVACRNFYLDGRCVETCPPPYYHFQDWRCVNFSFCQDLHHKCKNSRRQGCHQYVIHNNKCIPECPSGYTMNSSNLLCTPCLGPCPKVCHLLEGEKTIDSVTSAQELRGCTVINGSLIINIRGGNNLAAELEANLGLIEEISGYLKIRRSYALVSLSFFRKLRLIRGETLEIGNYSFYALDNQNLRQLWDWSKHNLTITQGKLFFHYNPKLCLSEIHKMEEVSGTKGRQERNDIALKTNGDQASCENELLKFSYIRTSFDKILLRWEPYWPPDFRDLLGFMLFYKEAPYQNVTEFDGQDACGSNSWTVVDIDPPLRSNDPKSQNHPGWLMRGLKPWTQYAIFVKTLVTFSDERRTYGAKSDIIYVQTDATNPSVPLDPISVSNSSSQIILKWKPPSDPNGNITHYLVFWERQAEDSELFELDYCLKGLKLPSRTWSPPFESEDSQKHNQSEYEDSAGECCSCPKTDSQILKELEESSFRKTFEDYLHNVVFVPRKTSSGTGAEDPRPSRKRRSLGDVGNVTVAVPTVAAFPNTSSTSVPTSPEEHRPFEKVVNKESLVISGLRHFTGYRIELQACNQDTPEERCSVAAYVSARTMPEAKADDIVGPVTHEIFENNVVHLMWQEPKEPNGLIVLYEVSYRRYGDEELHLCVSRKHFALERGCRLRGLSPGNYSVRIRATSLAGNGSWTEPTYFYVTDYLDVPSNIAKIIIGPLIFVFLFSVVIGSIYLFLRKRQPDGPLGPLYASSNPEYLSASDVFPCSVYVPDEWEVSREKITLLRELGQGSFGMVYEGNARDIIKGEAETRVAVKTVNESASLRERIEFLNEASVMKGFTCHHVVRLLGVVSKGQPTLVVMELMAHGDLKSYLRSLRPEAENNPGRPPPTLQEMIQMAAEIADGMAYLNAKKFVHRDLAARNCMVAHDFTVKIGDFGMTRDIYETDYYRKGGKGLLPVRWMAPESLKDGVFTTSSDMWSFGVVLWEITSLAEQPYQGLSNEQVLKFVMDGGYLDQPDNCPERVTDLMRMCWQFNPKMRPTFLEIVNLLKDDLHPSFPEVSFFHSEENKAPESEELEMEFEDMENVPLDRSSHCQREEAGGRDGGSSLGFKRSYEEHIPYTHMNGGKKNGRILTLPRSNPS
Description: as §3

Parental Ba/F3 cells = assay: Anti-proliferation assay (CTG), parental Ba/F3; assay type: cell-based; conditions: Mus musculus, BaF3, 72 h, with IL-3, mean ± SD of three independent experiments, read-out: GI50 Ba/F3 cell lines Parental
Description: as §5, §6

CN1CCN(c2ccc(C(=O)Nc3n[nH]c4ncc(S(=O)(=O)c5cccc(F)c5)cc34)cc2)CC1 [10g, N-(5-((3-Fluorophenyl)sulfonyl)-1H-pyrazolo[3,4-b]pyridin-3-yl)-4–(4-methylpiperazin-1-yl)benzamide]
cell cycle arrest (H2228 cells): significant enhancement of G1-S arrest | number of apoptotic cells (FACS) ([1]; ALK L1196M-TEL Ba/F3, 24 h, in words): increases the number of apoptotic cells in a dose-dependent manner | apoptosis induction compared with crizotinib ([1]; ALK L1196M-TEL Ba/F3, in words): more effectively than does crizotinib | Rank Papp (Caco-2 cells; Caco-2 permeability class from Papp (A to B)): moderate | Rank P-gp (Caco-2 cells; P-gp substrate status from efflux ratio): not a substrate | Papp A→B at 120 min, 10 µM ([2]; Caco-2, Caco-2, 10 µM, 120 min, 37 °C, HBSS + 1%BSA, read-out: Mean Papp A to B): 25.6 nm/s | recovery at 120 min, 10 µM ([2]; Caco-2, Caco-2, 10 µM, 120 min, read-out: Mean recovery % A to B): 74.2% | recovery at 120 min, 10 µM ([2]; Caco-2, Caco-2, 10 µM, 120 min, read-out: Mean recovery % B to A): 92.3% | Papp A→B at 120 min, 10 µM ([2]; Caco-2, Caco-2 permeability class from Papp (A to B), read-out: Rank Papp): 25 to 100 nm/s | efflux ratio at 120 min, 10 µM ([2]; Caco-2, 10 µM, 120 min): 1.85 | Papp B→A at 120 min, 10 µM ([2]; Caco-2, 10 µM, 120 min, 37 °C, HBSS + 1%BSA): 47.4 nm/s | IC50 (c-Src): 0.007 µM | ALK autophosphorylation (western blot) ([3]; 1 and 10 µM, 2 h, ALK wt-TEL Ba/F3, ALK L1196M-TEL Ba/F3 and H2228 cell lines): effectively attenuates | phosphorylation levels of STAT3, ERK and PLC-gamma (western blot) ([3]; 2 h, dose-dependent): moderately suppressed | inhibition of ALK autophosphorylation compared with crizotinib ([3]; ALK L1196M-TEL Ba/F3 cells): more effective than crizotinib | number of apoptotic cells (FACS) (ALK wt-TEL Ba/F3 cells): increases the number of apoptotic cells in a dose-dependent manner | levels of cleaved PARP and cleaved caspase-3 (western blot) [4]: increases in the levels of cleaved PARP and cleaved caspase-3 | IC50 (ALK-L1196M): < 0.0005 µM | change in IC50 against ALK-wt on 10-fold increase in ATP concentration (ALK-wt; 10 vs 100 µM ATP): 50 fold | IC50 (ALK-wt; IC50 ALK-wt [ATP](50 μM), 50 μM ATP): 0.0173 µM | IC50 (ALK-wt; IC50 ALK-wt [ATP](100 μM), 100 μM ATP): 0.024 µM and 0.0249 µM | IC50 (ALK-wt; radiometric kinase assay, 10 µM ATP, read-out: IC50 ALK-wt): < 0.0005 µM | GI50 ([5]; Mus musculus, BaF3, 72 h, CTG, mean ± SD of three independent experiments, read-out: GI50 Ba/F3 cell lines ALKL1196M-TEL): 0.129 ± 0.02 µM | differential cytotoxicity against ALK-L1196M Ba/F3 cells vs. parental Ba/F3 cells compared with crizotinib ([5]; in words): much more favourable differential cytotoxicity | IC50 (ALK-F1174L): 0.00817 µM | IC50 [6]: 0.404 µM | GI50 (Parental Ba/F3 cells): 3.5 ± 1.13 µM

From publication PMC6713165, “Identification of 1H-pyrazolo[3,4-b]pyridine derivatives as potent ALK-L1196M inhibitors” (Journal of Enzyme Inhibition and Medicinal Chemistry, 2019)
